Experimental data taken from PubChem BioAssay (NCI).
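Each compound was tested at five concentrations against cells in 96-well plates for 48 hours. GI50 = concentration required for 50% inhibition of growth. TGI denotes the concentration required for complete inhibition of growth.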

Key:
Experiment in all cases: growth of human tumour cells (NCI), 48 h
[1] = test system: SK-OV-3 ovarian
[2] = test system: TK-10 renal
[3] = test system: NCI-H23 lung
[4] = test system: UACC-62 melanoma
[5] = test system: SF-268 CNS
[6] = test system: UO-31 renal
[7] = test system: SK-MEL-28 melanoma
[8] = test system: KM12 colon
[9] = test system: SK-MEL-5 melanoma
[10] = test system: OVCAR-4 ovarian

SMILES	TGI [1] [µM]	TGI [2] [µM]	TGI [3] [µM]	TGI [4] [µM]	TGI [5] [µM]	TGI [6] [µM]	TGI [7] [µM]	TGI [8] [µM]	TGI [9] [µM]	GI50 [1] [µM]	GI50 [2] [µM]	GI50 [10] [µM]	TGI [10] [µM]	GI50 [3] [µM]	GI50 [4] [µM]	GI50 [5] [µM]	GI50 [6] [µM]	GI50 [7] [µM]	GI50 [8] [µM]	GI50 [9] [µM]
CON1C(=O)C2(CCCCC2)C(=O)C12C=CC(C)CC2 (stereo not drawn)	> 100	> 100	> 100	> 100	> 100	> 100	> 100	> 100	> 100	–	–	–	–	–	–	–	–	–	–	–
NC(=O)c1ccc(I)c([N+](=O)[O-])c1	> 100	> 100	> 100	> 100	> 100	> 100	> 100	> 100	> 100	> 100	> 100	17.2	32.1	76.1	56.1	> 100	> 100	98.7	> 100	> 100
Cc1cccc2c(=O)c3c(sc12)c(NCCCN)nc1ccccc13	–	–	3.5	3.06	3.17	2.29	3.41	3.21	3.18	–	–	1.58	3.25	1.76	1.6	1.53	1.06	1.89	1.65	1.74
NCCCNCc1c2ccccc2c(CNCCCN)c2ccccc12	–	> 100	49.7	> 100	20.2	> 100	–	43.9	66.6	–	–	–	26.5	–	–	–	–	–	–	–
Oc1cccc2ccc(SSc3ccc4cccc(O)c4n3)nc12	31.7	41.3	31.2	39.4	75.4	83.9	41.3	29.5	> 100	–	–	–	34.2	–	–	–	–	–	–	–
Oc1ccc(O)c(-n2cccn2)c1	> 100	> 100	> 100	> 100	> 100	> 100	> 100	> 100	> 100	–	–	–	> 100	–	–	–	–	–	–	–
COc1cc(/C=C/C(=O)c2ccccc2O)ccc1OCCCOc1cc2c(cc1OC)C(=O)N1CCC[C@H]1C=N2	3.82	1.62	0.151	0.102	0.064	0.771	0.109	0.263	0.167	0.316	0.0794	0.116	15.2	0.0363	0.0388	0.0247	0.0812	0.0476	0.0369	0.0577
COC(=O)[C@@H](C)C[C@H](Cc1ccc(F)cc1)NC(=O)c1csc([C@@H](C[C@H](C(C)C)N(C)C(=O)[C@@H](NC(=O)[C@H]2CCCCN2C)C2CC2)OC(C)=O)n1	> 25	> 25	> 25	> 25	> 25	> 25	> 25	> 25	1.46	5.39	> 13.8	2.37	> 25	1.14	0.137	1.16	1.91	1.05	0.28	0.0957
COc1nc(NC2OC(COC(C)=O)C(OC(C)=O)C(OC(C)=O)C2OC(C)=O)c(N=C(C)C(C)=O)c(=O)n1C (stereo not drawn)	> 100	> 100	> 100	> 100	–	> 100	–	> 100	> 100	–	–	–	> 100	–	–	–	–	–	–	–
O=C1NN(C(=O)c2ccccc2)C(c2ccc(Cl)c(Cl)c2)=C/C1=C\c1ccccc1[N+](=O)[O-]	> 6.75	> 6.75	6.5	> 6.75	> 6.75	6.7	> 6.75	> 6.75	2.19	4	4.26	2.26	> 6.75	1.04	1.44	3.97	0.735	2.72	2.34	1.17
CSc1nc2c(nc(N)n2C2OC(CO)C(O)C(O)C2O)c(=O)[nH]1 (stereo not drawn)	> 100	> 100	> 100	> 100	> 100	> 100	> 100	> 100	> 100	–	–	–	> 100	–	–	–	–	–	–	–
COC(=O)CCCCCOS(=O)(=O)c1ccc(C)cc1	> 100	> 100	> 100	> 100	> 100	> 100	> 100	> 100	> 100	–	–	–	–	–	–	–	–	–	–	–
CCCCNC(=O)Oc1ccc(/C(=C(\C)c2ccc(OC)cc2)c2ccc(OCCN3CCCCC3)cc2)cc1	25	23.3	21.4	4.1	20.5	4.01	3.4	5.91	3.08	7.63	9.41	2.29	8.2	4.06	2.06	5.55	1.71	1.75	2.35	1.68
C[N+]1(CCNP(=S)(NCC[N+]2(C)Cc3c(ccc4c3OCO4)C3C2c2cc4c(cc2C[C@@H]3O)OCO4)NCC[N+]2(C)Cc3c(ccc4c3OCO4)C3C2c2cc4c(cc2C[C@@H]3O)OCO4)Cc2c(ccc3c2OCO3)C2C1c1cc3c(cc1C[C@H]2O)OCO3 (stereo partly drawn)	–	–	–	–	–	–	–	–	–	2.96	8.2	4.74	–	2.25	1.23	6.67	4.3	3.51	1.78	1.89
OC(c1cc2ccccc2[nH]1)C(O)(c1cc2ccccc2[nH]1)c1cc2ccccc2[nH]1 (stereo not drawn)	79.1	90.3	21	23.2	85.2	–	55.1	> 245	39.8	–	–	–	–	–	–	–	–	–	–	–
CCC(CO)Nc1nc(NCc2ccccc2)c2n[nH]c(C(C)C)c2n1 (stereo not drawn)	20.7	33.1	31.2	24.7	26.4	21.9	27.7	23.1	17.3	6.4	13.7	6.81	25.6	12.3	11.3	10.7	7.43	10.5	10.2	4.91
